Laboratory results from US6355799B1, “Substituted benzene compounds, process for their preparation, and herbicidal and defoliant compositions containing them” (ISK Americas Incorporated, priority 1997, dated 2002).

Experiments:
Format in all cases: in vivo
[1] = system: field corn (Zea mays L., var. Dekalb 535, CORN); test: Pre-emerge test, crop safety; conditions: rated 14 days after application, 0 = no damage, 100 = complete death
Outline: (§1)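 Visual ratings on a 0-100 scale (0 no damage, 100 all plants dead) were taken at 14 days after treatment. Rates of 15-1000 g ai/ha in acetone, 187 l/ha, were sprayed onto soil one day after planting (pre-emerge) or onto 2-3 leaf plants with 0.25% v/v surfactant (post-emerge).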

[2] = system: upland rice (Oryza sp., var. Tebonnet, RICE); test: Pre-emerge test, crop safety; conditions: rated 14 days after application, 0 = no damage, 100 = complete death
Outline: as §1

[3] = system: field corn (Zea mays L., var. Dekalb 535, CORN); test: Post-emerge test, crop safety; conditions: post-emerge, 14 days after application, rating scale 0-100
Outline: (§2)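 Compounds in acetone were track-sprayed at 187 l/ha, 15–1000 g ai/ha, onto sandy loam pots. Pre-emerge seeds were sown one day before spraying, with surface watering afterwards. Post-emerge plants were at the 2–3 leaf stage and sprayed with 0.25% v/v non-ionic surfactant. Injury was rated 0–100 at 14 days.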

[4] = system: upland rice (Oryza sp., var. Tebonnet, RICE); test: Post-emerge test, crop safety; conditions: post-emerge, 14 days after application, rating scale 0-100
Outline: as §2

[5] = system: redroot pigweed (Amaranthus retroflexus, AMARE); test: Pre-emerge test, greenhouse herbicide activity screening; conditions: rated 14 days after application, 0 = no damage, 100 = complete death
Outline: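 Rating: 0–100 visual injury, 14 DAA. Application: acetone, 187 l/ha, 15–1000 g ai/ha, flat-fan track sprayer with nozzle 40–45 cm above soil or canopy. Post-emerge runs used 0.25% v/v surfactant on 2–3 leaf plants.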

[6] = system: common ragweed (Ambrosia artemisizfolia L., AMBEL); test: Post-emerge test, greenhouse herbicide activity screening; conditions: post-emerge, 14 days after application, rating scale 0-100
Outline: (§3)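 Sandy loam pots; pre-emerge: sown 1 d pre-spray, surface-watered after, then bottom-watered. Post-emerge: sown 8–21 d before, 2–3 leaf stage, + 0.25% v/v NIS, bottom-watered. Acetone, 187 l/ha track spray, 15–1000 g ai/ha. 0–100 injury score, day 14.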

[7] = system: large crabgrass (Digitaria sanguinalis, DIGSA); test: as above; conditions: post-emerge, 14 days after application, rating scale 0-100
Outline: as §3

[8] = system: ivyleaf morningglory (Ipomoea hederacea, IPOHE); test: as above; conditions: post-emerge, 14 days after application, rating scale 0-100
Outline: as §3

[9] = system: johnsongrass (Sorghum halepense, SORHA); test: as above; conditions: post-emerge, 14 days after application, rating scale 0-100
Outline: as §3

[10] = system: lambsquarters (Chenopodium album, CHEAL); test: as above; conditions: post-emerge, 14 days after application, rating scale 0-100
Outline: as §3

[11] = system: green foxtail (Setaria viridis, SETVI); test: as above; conditions: post-emerge, 14 days after application, rating scale 0-100
Outline: as §3

[12] = system: velvetleaf (Abutilon theophrasti, ABUTH); test: as above; conditions: post-emerge, 14 days after application, rating scale 0-100
Outline: as §3

[13] = system: redroot pigweed (Amaranthus retroflexus, AMARE); test: as above; conditions: post-emerge, 14 days after application, rating scale 0-100
Outline: as §3

[14] = system: sicklepod (Cassia obtusifolia, CASOB); test: as above; conditions: post-emerge, 14 days after application, rating scale 0-100
Outline: as §3

[15] = system: barnyardgrass (Echinochloa crus-galli, ECHCG); test: as above; conditions: post-emerge, 14 days after application, rating scale 0-100
Outline: as §3

[16] = system: common ragweed (Ambrosia artemisizfolia L., AMBEL); test: Pre-emerge test, greenhouse herbicide activity screening; conditions: rated 14 days after application, 0 = no damage, 100 = complete death
Outline: as §2

[17] = system: large crabgrass (Digitaria sanguinalis, DIGSA); test: as above; conditions: rated 14 days after application, 0 = no damage, 100 = complete death
Outline: as §2

[18] = system: ivyleaf morningglory (Ipomoea hederacea, IPOHE); test: as above; conditions: rated 14 days after application, 0 = no damage, 100 = complete death
Outline: as §2

[19] = system: johnsongrass (Sorghum halepense, SORHA); test: as above; conditions: rated 14 days after application, 0 = no damage, 100 = complete death
Outline: as §2

[20] = system: lambsquarters (Chenopodium album, CHEAL); test: as above; conditions: rated 14 days after application, 0 = no damage, 100 = complete death
Outline: as §2

[21] = system: green foxtail (Setaria viridis, SETVI); test: as above; conditions: rated 14 days after application, 0 = no damage, 100 = complete death
Outline: as §2

[22] = system: velvetleaf (Abutilon theophrasti, ABUTH); test: as above; conditions: rated 14 days after application, 0 = no damage, 100 = complete death
Outline: as §2

[23] = system: sicklepod (Cassia obtusifolia, CASOB); test: as above; conditions: rated 14 days after application, 0 = no damage, 100 = complete death
Outline: as §2

[24] = system: barnyardgrass (Echinochloa crus-galli, ECHCG); test: as above; conditions: rated 14 days after application, 0 = no damage, 100 = complete death
Outline: as §2

SMILES: COc1c(Cl)cc(F)c(-n2c(=O)cc(C(F)(F)F)n(C)c2=O)c1NC(=O)c1ccc(Cl)c(Cl)c1 [2-59]
- Pre-emerge phytotoxicity rating (0-100), crop damage, CORN ([1]; 63 g ai/ha): 10
- Pre-emerge phytotoxicity rating (0-100), crop damage, CORN ([1]; 250 g ai/ha): 70
- Pre-emerge phytotoxicity rating (0-100), crop damage, RICE ([2]; 63 g ai/ha): 25
- Pre-emerge phytotoxicity rating (0-100), crop damage, RICE ([2]; 250 g ai/ha): 75
- phytotoxicity rating CORN ([3]; 63 g ai/ha): 70
- phytotoxicity rating CORN ([3]; 250 g ai/ha): 80
- phytotoxicity rating RICE ([4]; 63 g ai/ha): 70
- phytotoxicity rating RICE ([4]; 250 g ai/ha): 80
- Pre-emerge Herbicidal Activity, phytotoxicity rating (0-100), AMARE ([5]; 63 g ai/ha): 100
- Pre-emerge Herbicidal Activity, phytotoxicity rating (0-100), AMARE ([5]; 250 g ai/ha): 100
- phytotoxicity rating AMBEL ([6]; 63 g ai/ha): 70
- phytotoxicity rating AMBEL ([6]; 250 g ai/ha): 100
- phytotoxicity rating DIGSA ([7]; 63 g ai/ha): 0
- phytotoxicity rating DIGSA ([7]; 250 g ai/ha): 30
- phytotoxicity rating IPOHE ([8]; 63 g ai/ha): 100
- phytotoxicity rating IPOHE ([8]; 250 g ai/ha): 100
- phytotoxicity rating SORHA ([9]; 63 g ai/ha): 30
- phytotoxicity rating SORHA ([9]; 250 g ai/ha): 65
- phytotoxicity rating CHEAL ([10]; 63 g ai/ha): 100
- phytotoxicity rating CHEAL ([10]; 250 g ai/ha): 100
- phytotoxicity rating SETVI ([11]; 63 g ai/ha): 20
- phytotoxicity rating SETVI ([11]; 250 g ai/ha): 20
- phytotoxicity rating ABUTH ([12]; 63 g ai/ha): 100
- phytotoxicity rating ABUTH ([12]; 250 g ai/ha): 100
- phytotoxicity rating AMARE ([13]; 63 g ai/ha): 100
- phytotoxicity rating AMARE ([13]; 250 g ai/ha): 100
- phytotoxicity rating CASOB ([14]; 63 g ai/ha): 90
- phytotoxicity rating CASOB ([14]; 250 g ai/ha): 100
- phytotoxicity rating ECHCG ([15]; 63 g ai/ha): 0
- phytotoxicity rating ECHCG ([15]; 250 g ai/ha): 30
- Pre-emerge Herbicidal Activity, phytotoxicity rating (0-100), AMBEL ([16]; 63 g ai/ha): 50
- Pre-emerge Herbicidal Activity, phytotoxicity rating (0-100), AMBEL ([16]; 250 g ai/ha): 90
- Pre-emerge Herbicidal Activity, phytotoxicity rating (0-100), DIGSA ([17]; 63 g ai/ha): 70
- Pre-emerge Herbicidal Activity, phytotoxicity rating (0-100), DIGSA ([17]; 250 g ai/ha): 100
- Pre-emerge Herbicidal Activity, phytotoxicity rating (0-100), IPOHE ([18]; 63 g ai/ha): 20
- Pre-emerge Herbicidal Activity, phytotoxicity rating (0-100), IPOHE ([18]; 250 g ai/ha): 100
- Pre-emerge Herbicidal Activity, phytotoxicity rating (0-100), SORHA ([19]; 63 g ai/ha): 40
- Pre-emerge Herbicidal Activity, phytotoxicity rating (0-100), SORHA ([19]; 250 g ai/ha): 90
- Pre-emerge Herbicidal Activity, phytotoxicity rating (0-100), CHEAL ([20]; 63 g ai/ha): 100
- Pre-emerge Herbicidal Activity, phytotoxicity rating (0-100), CHEAL ([20]; 250 g ai/ha): 100
- Pre-emerge Herbicidal Activity, phytotoxicity rating (0-100), SETVI ([21]; 63 g ai/ha): 100
- Pre-emerge Herbicidal Activity, phytotoxicity rating (0-100), SETVI ([21]; 250 g ai/ha): 100
- Pre-emerge Herbicidal Activity, phytotoxicity rating (0-100), ABUTH ([22]; 63 g ai/ha): 100
- Pre-emerge Herbicidal Activity, phytotoxicity rating (0-100), ABUTH ([22]; 250 g ai/ha): 100
- Pre-emerge Herbicidal Activity, phytotoxicity rating (0-100), CASOB ([23]; 63 g ai/ha): 30
- Pre-emerge Herbicidal Activity, phytotoxicity rating (0-100), CASOB ([23]; 250 g ai/ha): 100
- Pre-emerge Herbicidal Activity, phytotoxicity rating (0-100), ECHCG ([24]; 63 g ai/ha): 40
- Pre-emerge Herbicidal Activity, phytotoxicity rating (0-100), ECHCG ([24]; 250 g ai/ha): 9

SMILES: COc1c(Cl)cc(F)c(-n2c(=O)cc(C(F)(F)F)n(C)c2=O)c1NC(=O)c1ccc(Br)cc1 [2-61]
- Pre-emerge phytotoxicity rating (0-100), crop damage, CORN ([1]; 63 g ai/ha): 10
- Pre-emerge phytotoxicity rating (0-100), crop damage, CORN ([1]; 250 g ai/ha): 95
- Pre-emerge phytotoxicity rating (0-100), crop damage, RICE ([2]; 63 g ai/ha): 75
- Pre-emerge phytotoxicity rating (0-100), crop damage, RICE ([2]; 250 g ai/ha): 95
- phytotoxicity rating CORN ([3]; 63 g ai/ha): 35
- phytotoxicity rating CORN ([3]; 250 g ai/ha): 90
- phytotoxicity rating RICE ([4]; 63 g ai/ha): 60
- phytotoxicity rating RICE ([4]; 250 g ai/ha): 90
- Pre-emerge Herbicidal Activity, phytotoxicity rating (0-100), AMARE ([5]; 63 g ai/ha): 100
- Pre-emerge Herbicidal Activity, phytotoxicity rating (0-100), AMARE ([5]; 250 g ai/ha): 100
- phytotoxicity rating AMBEL ([6]; 63 g ai/ha): 100
- phytotoxicity rating AMBEL ([6]; 250 g ai/ha): 95
- phytotoxicity rating DIGSA ([7]; 63 g ai/ha): 20
- phytotoxicity rating DIGSA ([7]; 250 g ai/ha): 50
- phytotoxicity rating IPOHE ([8]; 63 g ai/ha): 100
- phytotoxicity rating IPOHE ([8]; 250 g ai/ha): 100
- phytotoxicity rating SORHA ([9]; 63 g ai/ha): 20
- phytotoxicity rating SORHA ([9]; 250 g ai/ha): 70
- phytotoxicity rating CHEAL ([10]; 63 g ai/ha): 100
- phytotoxicity rating CHEAL ([10]; 250 g ai/ha): 100
- phytotoxicity rating SETVI ([11]; 63 g ai/ha): 60
- phytotoxicity rating SETVI ([11]; 250 g ai/ha): 90
- phytotoxicity rating ABUTH ([12]; 63 g ai/ha): 100
- phytotoxicity rating ABUTH ([12]; 250 g ai/ha): 100
- phytotoxicity rating AMARE ([13]; 63 g ai/ha): 100
- phytotoxicity rating AMARE ([13]; 250 g ai/ha): 100
- phytotoxicity rating CASOB ([14]; 63 g ai/ha): 100
- phytotoxicity rating CASOB ([14]; 250 g ai/ha): 100
- phytotoxicity rating ECHCG ([15]; 63 g ai/ha): 40
- phytotoxicity rating ECHCG ([15]; 250 g ai/ha): 70
- Pre-emerge Herbicidal Activity, phytotoxicity rating (0-100), AMBEL ([16]; 63 g ai/ha): 80
- Pre-emerge Herbicidal Activity, phytotoxicity rating (0-100), AMBEL ([16]; 250 g ai/ha): 100
- Pre-emerge Herbicidal Activity, phytotoxicity rating (0-100), DIGSA ([17]; 63 g ai/ha): 90
- Pre-emerge Herbicidal Activity, phytotoxicity rating (0-100), DIGSA ([17]; 250 g ai/ha): 100
- Pre-emerge Herbicidal Activity, phytotoxicity rating (0-100), IPOHE ([18]; 63 g ai/ha): 90
- Pre-emerge Herbicidal Activity, phytotoxicity rating (0-100), IPOHE ([18]; 250 g ai/ha): 100
- Pre-emerge Herbicidal Activity, phytotoxicity rating (0-100), SORHA ([19]; 63 g ai/ha): 80
- Pre-emerge Herbicidal Activity, phytotoxicity rating (0-100), SORHA ([19]; 250 g ai/ha): 100
- Pre-emerge Herbicidal Activity, phytotoxicity rating (0-100), CHEAL ([20]; 63 g ai/ha): 100
- Pre-emerge Herbicidal Activity, phytotoxicity rating (0-100), CHEAL ([20]; 250 g ai/ha): 100
- Pre-emerge Herbicidal Activity, phytotoxicity rating (0-100), SETVI ([21]; 63 g ai/ha): 10
- Pre-emerge Herbicidal Activity, phytotoxicity rating (0-100), SETVI ([21]; 250 g ai/ha): 100
- Pre-emerge Herbicidal Activity, phytotoxicity rating (0-100), ABUTH ([22]; 63 g ai/ha): 100
- Pre-emerge Herbicidal Activity, phytotoxicity rating (0-100), ABUTH ([22]; 250 g ai/ha): 100
- Pre-emerge Herbicidal Activity, phytotoxicity rating (0-100), CASOB ([23]; 63 g ai/ha): 40
- Pre-emerge Herbicidal Activity, phytotoxicity rating (0-100), CASOB ([23]; 250 g ai/ha): 100
- Pre-emerge Herbicidal Activity, phytotoxicity rating (0-100), ECHCG ([24]; 63 g ai/ha): 85
- Pre-emerge Herbicidal Activity, phytotoxicity rating (0-100), ECHCG ([24]; 250 g ai/ha): 100
